Data published in patent US10314841B2, “Substituted pyrazoles as IRAK inhibitors” (Merck Patent GmbH, priority 2014, dated 2019).

How the values were obtained:
[1] = test system: TLR7 induced IL-6 secretion in human PBMC's; test: TLR7 induced IL-6 in human PBMC's; assay type: cell-based; details: human PBMC, TLR7 specific ligand 2 uM overnight, IL-6 Alpha LISA; read-out: TLR7 induced IL-6 secretion in hPBMC's (IC50)
Procedure: TLR7 Induced IL-6 in Human PBMC's Human PBMC assay was used as one of the functional assays to monitor the activity of IRAK1 and IRAK4 small molecule inhibitors on TLR7 induced IL-6 secretion in human mononuclear cells (PBMC's). Human PBMCs were prepared from buffy coats (whole blood enriched with leukocytes and platelets) obtained from healthy volunteers used either fresh or frozen are plated in assay media (RPMI+2% P/S/L-glu+10% HI-FBS) and pre-treated with compounds in DMSO/media (range of concentrations from 25 uM to 0.4 nM) or controls (0.25% DMSO) for 30 minutes at 37° C. in assay media. Following pre-treatment with IRAK1 and IRAK4 inhibitors, PBMC's were stimulated with TLR7 specific ligand (2 uM) overnight (16-18 hrs) at 37° C. After incubation supernatant was transferred to 384 well PE AlphaPlate-384 (6005350) and IL-6 is quantified using Perkin Elmer IL-6 Alpha LISA kit (A[…]). Plates were read on an Envision® plate reader with Alpha Technology®.

IRAK4 (His-TEV-IRAK4) = biological target: T1, IRAK4 (His-TEV-IRAK4) (Homo sapiens, UniProt Q9NWZ3); test: IRAK4 enzymatic assay; assay type: biochemical; details: human recombinant His-TEV-IRAK4, ATP 2 μM, STK1-biotin peptide 300 nM, 3 hours at 30° C., FlashPlate
T1 construct: His (N); TEV cleavage site (N)
T1 sequence (Q9NWZ3 1-460): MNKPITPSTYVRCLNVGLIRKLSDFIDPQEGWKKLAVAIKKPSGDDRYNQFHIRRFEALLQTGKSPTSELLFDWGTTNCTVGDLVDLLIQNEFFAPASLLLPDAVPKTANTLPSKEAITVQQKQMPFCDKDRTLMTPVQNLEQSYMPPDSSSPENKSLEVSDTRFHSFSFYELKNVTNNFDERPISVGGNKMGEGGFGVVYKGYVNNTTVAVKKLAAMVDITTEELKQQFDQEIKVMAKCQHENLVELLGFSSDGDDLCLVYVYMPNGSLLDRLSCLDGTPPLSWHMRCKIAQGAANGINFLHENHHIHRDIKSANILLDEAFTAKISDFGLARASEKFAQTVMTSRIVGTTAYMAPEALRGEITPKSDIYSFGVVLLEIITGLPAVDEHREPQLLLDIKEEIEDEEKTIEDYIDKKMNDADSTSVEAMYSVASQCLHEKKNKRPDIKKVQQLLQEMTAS
Procedure: IRAK4 Enzymatic Assay IRAK4 is a human purified recombinant enzyme (His-TEV-[…] (194-712). IRAK4 hydrolyses ATP, autophosphorylates and phosphorylates a Serine/Threonine generic peptidic substrate (STK: 61 ST1BLC from CisBio International based in Bagnols/Cèze FR). Measurement of IRAK-4 inhibition was performed in streptavidin coated 384 well FlashPlate (PerkinElmer #SM[…]). His-TEV-IRAK4 (20 ng/well), ATP (2 μM, [^33P]ATP 0.25 μCi/well), STK1-biotin peptide (300 nM) and compounds in DMSO (range of concentrations from 20 μM to 1 nM) or controls (2% DMSO) were incubated for 3 hours at 30° C. in assay buffer: Hepes pH7.0 50 mM, Fatty acid-free BSA 0.1%, Dithiothreitol DTT 2 mM, MgCl2 10 mM, EGTA 0.5 mM, Tween-20 0.01%, MnCl2 5 mM. Kinase reaction was stopped by addition of EDTA. Supernatant was discarded, plates were washed three times with 150 mM NaCl and radioactivity was then measured in a Microbeta Trilux reader.

[2] = biological target: T2, IRAK1 (His-TEV-IRAK1 (194-712)) (Homo sapiens, UniProt P51617); test: IRAK1 enzymatic assay; assay type: biochemical; details: human recombinant His-TEV-IRAK1, ATP 1 μM, 3 hours at 30° C., FlashPlate
T2 construct: His-TEV-IRAK1 (194-712); His (N); TEV cleavage site (N)
Procedure: IRAK1 Enzymatic Assay IRAK1 is a human purified recombinant enzyme (His-TEV-IRAK1 (194-712)). In this assay, IRAK-1 hydrolyses ATP and autophosphorylates. Measurement of IRAK-1 inhibition was performed in streptavidin coated 384 well FlashPlate (PerkinElmer #SM[…]). His-TEV-IRAK-1 (15 ng/well), ATP (1 μ[…]]ATP 0.25 μCi/well) and compounds in DMSO (range of concentrations from 20 μM to 1 nM) or controls (2% DMSO) were incubated for 3 hours at 30° C. in assay buffer: Hepes pH7.0 50 mM, Fatty acid-free BSA 0.1%, Dithiothreitol DTT 2 mM, MgCl2 10 mM, EGTA 0.5 mM, Triton-X-100 0.01%. Kinase reaction was stopped by addition of EDTA. Supernatant was discarded, plates were washed three times with 150 mM NaCl and radioactivity was then measured in a Microbeta Trilux reader.

T2 sequence (P51617 194-712): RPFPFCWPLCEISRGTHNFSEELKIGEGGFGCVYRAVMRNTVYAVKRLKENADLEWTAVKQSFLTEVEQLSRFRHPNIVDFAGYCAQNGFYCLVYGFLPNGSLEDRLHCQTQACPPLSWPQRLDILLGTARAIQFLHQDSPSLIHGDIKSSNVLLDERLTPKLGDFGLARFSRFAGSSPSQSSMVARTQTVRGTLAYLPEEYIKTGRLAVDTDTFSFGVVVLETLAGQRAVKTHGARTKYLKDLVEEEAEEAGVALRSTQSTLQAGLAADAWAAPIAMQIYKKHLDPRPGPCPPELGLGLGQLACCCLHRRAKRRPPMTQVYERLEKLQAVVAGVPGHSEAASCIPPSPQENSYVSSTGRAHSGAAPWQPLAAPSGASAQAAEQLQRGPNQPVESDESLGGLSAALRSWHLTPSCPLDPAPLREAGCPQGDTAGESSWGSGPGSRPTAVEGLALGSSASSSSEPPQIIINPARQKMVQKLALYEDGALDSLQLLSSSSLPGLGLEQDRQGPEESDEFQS

C=CC(=O)N[C@H]1CCC[C@H](n2cc(-c3cnc(-c4cccc(-c5cnn(C)c5)c4)nc3)cn2)C1 [Compound 38, N-[(1S,3S)-3-(4-{2-[3-(1-Methyl-1H-pyrazol-4-yl)-phenyl]-pyrimidin-5-yl}-pyrazol-1-yl)-cyclohexyl]-acrylamide]
IC50 [1]: 100 to 1000 nM | IC50 (IRAK4 (His-TEV-IRAK4)): < 100 nM | IC50 [2]: 100 to 1000 nM

Cn1nccc1-c1cccc(-c2ncc(-c3cnn([C@H]4CC[C@]5(CCC(=O)N5C)CC4)c3)cn2)c1 [Compound 43, 1-Methyl-8-((S)-4-{2-[3-(2-methyl-2H-pyrazol-3-yl)-phenyl]-pyrimidin-5-yl}-pyrazol-1-yl)-1-aza-spiro[4.5]decan-2-one]
IC50 [1]: 1000 to 20000 nM | IC50 (IRAK4 (His-TEV-IRAK4)): < 100 nM | IC50 [2]: 1000 to 20000 nM

Cn1cc(-c2cccc(-c3ncc(-c4cnn(C5CCN(C#N)CC5)c4)cn3)c2)cn1 [Compound 45, 4-(4-{2-[3-(1-Methyl-1H-pyrazol-4-yl)-phenyl]-pyrimidin-5-yl}-pyrazol-1-yl)-piperidine-1-carbonitrile]
IC50 [1]: 100 to 1000 nM | IC50 (IRAK4 (His-TEV-IRAK4)): < 100 nM | IC50 [2]: 100 to 1000 nM

Cn1cc(-c2cccc(-c3ncc(-c4cnn(C5CCN(C(=O)/C(C#N)=C\C6CC6)CC5)c4)cn3)c2)cn1 [Compound 46, (Z)-3-Cyclopropyl-2-[4-(4-{2-[3-(1-methyl-1H-pyrazol-4-yl)-phenyl]-pyrimidin-5-yl}-pyrazol-1-yl)-piperidine-1-carbonyl]-acrylonitrile]
IC50 [1]: 100 to 1000 nM | IC50 (IRAK4 (His-TEV-IRAK4)): < 100 nM | IC50 [2]: < 100 nM

CC#CC(=O)N1CCC(n2cc(-c3cnc(-c4cccc(-c5cnn(C)c5)c4)nc3)cn2)CC1 [Compound 48, 1-[4-(4-{2-[3-(1-Methyl-1H-pyrazol-4-yl)-phenyl]-pyrimidin-5-yl}-pyrazol-1-yl)-piperidin-1-yl]-but-2-yn-1-one]
IC50 [1]: 1000 to 20000 nM | IC50 (IRAK4 (His-TEV-IRAK4)): < 100 nM | IC50 [2]: < 100 nM
